Test results as given in ChEMBL document CHEMBL1201862, “PubChem BioAssay data set” (2004).
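Compound exposure: 48 hours, 5 concentrations, 96-well plates. At the GI50, growth is halved.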 Active and inactive are the calls of the source. Rule as the data show it: active = GI50 up to about 1.1 µM and inactive = higher.

Key:
Assay in all cases: NCI anticancer screen, dose series, 48 h
SK-MEL-2 = system: SK-MEL-2
IGROV-1 = system: IGROV-1
OVCAR-4 = system: OVCAR-4
OVCAR-5 = system: OVCAR-5
SK-MEL-28 = system: SK-MEL-28
NCI/ADR-RES = system: NCI/ADR-RES
SK-MEL-5 = system: SK-MEL-5
LOX IMVI = system: LOX IMVI
HOP-92 = system: HOP-92
EKVX = system: EKVX
T47D = system: T47D
786-0 = system: 786-0
OVCAR-3 = system: OVCAR-3
SR = system: SR
HCC 2998 = system: HCC 2998
MDA-MB-435 = system: MDA-MB-435
SN12C = system: SN12C
M14 = system: M14
Malme-3M = system: Malme-3M
TK-10 = system: TK-10

SMILES | GI50 (SK-MEL-2) | GI50 (IGROV-1) | GI50 (OVCAR-4) | GI50 (OVCAR-5) | GI50 (SK-MEL-28) | GI50 (NCI/ADR-RES) | GI50 (SK-MEL-5) | GI50 (LOX IMVI) | GI50 (HOP-92) | GI50 (EKVX) | GI50 (T47D) | GI50 (786-0) | GI50 (OVCAR-3) | GI50 (SR) | GI50 (HCC 2998) | GI50 (MDA-MB-435) | GI50 (SN12C) | GI50 (M14) | GI50 (Malme-3M) | GI50 (TK-10)
N#C/C(=C\n1ccc(=O)[nH]c1=S)C(N)=O | > 100 µM (inactive) | > 100 µM (inactive) | > 100 µM (inactive) | > 100 µM (inactive) | > 100 µM (inactive) | > 100 µM (inactive) | > 100 µM (inactive) | > 100 µM (inactive) | 73.6 µM (inactive) | > 100 µM (inactive) | > 100 µM (inactive) | > 100 µM (inactive) | < 0.01 µM (active) | > 100 µM (inactive) | > 100 µM (inactive) | > 100 µM (inactive) | > 100 µM (inactive) | > 100 µM (inactive) | > 100 µM (inactive) | 
N#C/C(=C\c1cccc(Br)c1)c1nc2ccccc2c(=O)[nH]1 | > 100 µM (inactive) | > 100 µM (inactive) | > 100 µM (inactive) | > 100 µM (inactive) | > 100 µM (inactive) | > 100 µM (inactive) | > 100 µM (inactive) | > 100 µM (inactive) | 15.1 µM (inactive) | > 100 µM (inactive) | > 100 µM (inactive) | 49.4 µM (inactive) |  | 92.9 µM (inactive) | > 100 µM (inactive) | > 100 µM (inactive) | > 100 µM (inactive) | > 100 µM (inactive) | > 100 µM (inactive) | 42.1 µM (inactive)
CCOc1ccc(/C=N/[N+](C)(C)C)cc1OCC |  | > 10 µM (inactive) | > 10 µM (inactive) | > 10 µM (inactive) | > 10 µM (inactive) | > 10 µM (inactive) | > 10 µM (inactive) | > 10 µM (inactive) | > 10 µM (inactive) |  | > 10 µM (inactive) | > 10 µM (inactive) | > 10 µM (inactive) | > 10 µM (inactive) | > 10 µM (inactive) | > 10 µM (inactive) | > 10 µM (inactive) | > 10 µM (inactive) | > 10 µM (inactive) | > 10 µM (inactive)
CC(=O)O[C@H]1CC[C@H]2[C@@H]3CCC4=C(C(=O)C=CC4(C)OC(C)=O)[C@H]3CC[C@]12C (some centres undefined) |  | > 100 µM (inactive) | > 100 µM (inactive) | > 100 µM (inactive) | > 100 µM (inactive) | 43.7 µM (inactive) | 47.9 µM (inactive) | 38.1 µM (inactive) | 63.2 µM (inactive) | > 100 µM (inactive) | > 100 µM (inactive) | 86.7 µM (inactive) | 47.6 µM (inactive) | 47.3 µM (inactive) | 38.3 µM (inactive) | 49.4 µM (inactive) | 41.5 µM (inactive) | 46.8 µM (inactive) | > 100 µM (inactive) | > 100 µM (inactive)
O=C1C=C2CO[C@H]3OC[C@H](O)[C@@H]1[C@@H]23 | 16.3 µM (inactive) | > 100 µM (inactive) |  | 73.5 µM (inactive) | 33.6 µM (inactive) | > 100 µM (inactive) | > 100 µM (inactive) | 32.7 µM (inactive) | 46.3 µM (inactive) | > 100 µM (inactive) | 25.5 µM (inactive) | 35 µM (inactive) | > 100 µM (inactive) | 22.6 µM (inactive) | 29 µM (inactive) | 30.9 µM (inactive) | 22.9 µM (inactive) | > 100 µM (inactive) | 21.6 µM (inactive) | 59.3 µM (inactive)
CC1(C)OC(=O)C(=Cc2ccc([N+](=O)[O-])s2)C(=O)O1 |  |  |  | 16.6 µM (inactive) | 18.9 µM (inactive) | 18.5 µM (inactive) | 16.2 µM (inactive) | 16.7 µM (inactive) | 21.1 µM (inactive) | 17.1 µM (inactive) | 14 µM (inactive) | 16.9 µM (inactive) | 10.6 µM (inactive) | 2.72 µM (inactive) | 11.3 µM (inactive) | 14.9 µM (inactive) | 16.1 µM (inactive) | 12.3 µM (inactive) | 19.2 µM (inactive) | 17.3 µM (inactive)
COC1CC(n2ccc(=O)[nH]c2=O)OC1CO (centres undefined) | > 100 µM (inactive) | > 100 µM (inactive) | > 100 µM (inactive) | > 100 µM (inactive) | > 100 µM (inactive) | > 100 µM (inactive) | > 100 µM (inactive) | > 100 µM (inactive) | > 100 µM (inactive) | > 100 µM (inactive) | > 100 µM (inactive) | > 100 µM (inactive) | > 100 µM (inactive) | > 100 µM (inactive) | > 100 µM (inactive) | > 100 µM (inactive) | > 100 µM (inactive) | > 100 µM (inactive) | > 100 µM (inactive) | 
COc1ccc(-c2nnc3n(C)c4ccccc4n3c2=O)cc1 | > 100 µM (inactive) | 51.5 µM (inactive) | > 100 µM (inactive) | > 100 µM (inactive) | > 100 µM (inactive) | > 100 µM (inactive) | > 100 µM (inactive) | > 100 µM (inactive) | > 100 µM (inactive) | > 100 µM (inactive) | > 100 µM (inactive) | 37.2 µM (inactive) |  | > 100 µM (inactive) | > 100 µM (inactive) | > 100 µM (inactive) | 59 µM (inactive) | > 100 µM (inactive) | > 100 µM (inactive) | 89.1 µM (inactive)
